Experimental findings from ChEMBL document CHEMBL1144857, “4-Biphenyl and 2-naphthyl substituted 6,7-dimethoxytetrahydroisoquinoline derivatives as potent P-gp modulators” (Bioorg Med Chem, 2008) are described below.

Usually Papp B→A stands for how fast a substance crosses the layer from the basolateral side. For orientation: pEC50 means −log10 of the EC50, conventionally taken in molar units. One may read the Papp A→B as how fast a substance crosses the layer from the apical side. The Papp is the rate of passage across a membrane or cell layer, normalised by area and donor concentration. A word on the inhibition: it is the drop in the measured response relative to a control, in per cent. Low readings indicate a weak effect, high ones a strong effect.

pEC50: −log10 of the molar value. Active and inactive are the calls of the source. The rule behind the calls is not given here.

Series [1] in a line: (§1) Apparent permeability from basolateral to apical side of human Caco-2 cell membrane. Type of series: ADME, cell-based. A general note: Caco-2 monolayers are a common model of the intestinal barrier.
For series [2], the target named is ATP-dependent translocase ABCB1 (Homo sapiens, UniProt P08183). The series is described as follows: Activation of human P-gp ATPase in human Caco-2 cells at 100 uM. Type of series: cell-based. The note with it: caco-2, 100 µM.
The nature of series [3]: Inhibition of human P-gp mediated [3H]vinblastine transport activity in human Caco-2 cells. Type of series: cell-based. The conditions noted are these: Caco-2, 2 h.
Series [4] in a line: (§2) Apparent permeability from apical to basolateral side of human Caco-2 cell membrane. Type of series: ADME, cell-based.
The subject of series [5] is Caco-2. The description is as §1. Type of series: ADME, cell-based.
The test system of series [6] is Caco-2. As to the kind of experiment: Ratio of permeability from […] side of human Caco-2 cell membrane. Type of series: ADME, cell-based.
The subject of series [7] is Caco-2. The description is as §2. Type of series: ADME, cell-based.
Series [8] concerns the target T1, Broad substrate specificity ATP-binding cassette transporter ABCG2 (Homo sapiens, UniProt Q9UNQ0).
T1 sequence (Q9UNQ0 whole entry): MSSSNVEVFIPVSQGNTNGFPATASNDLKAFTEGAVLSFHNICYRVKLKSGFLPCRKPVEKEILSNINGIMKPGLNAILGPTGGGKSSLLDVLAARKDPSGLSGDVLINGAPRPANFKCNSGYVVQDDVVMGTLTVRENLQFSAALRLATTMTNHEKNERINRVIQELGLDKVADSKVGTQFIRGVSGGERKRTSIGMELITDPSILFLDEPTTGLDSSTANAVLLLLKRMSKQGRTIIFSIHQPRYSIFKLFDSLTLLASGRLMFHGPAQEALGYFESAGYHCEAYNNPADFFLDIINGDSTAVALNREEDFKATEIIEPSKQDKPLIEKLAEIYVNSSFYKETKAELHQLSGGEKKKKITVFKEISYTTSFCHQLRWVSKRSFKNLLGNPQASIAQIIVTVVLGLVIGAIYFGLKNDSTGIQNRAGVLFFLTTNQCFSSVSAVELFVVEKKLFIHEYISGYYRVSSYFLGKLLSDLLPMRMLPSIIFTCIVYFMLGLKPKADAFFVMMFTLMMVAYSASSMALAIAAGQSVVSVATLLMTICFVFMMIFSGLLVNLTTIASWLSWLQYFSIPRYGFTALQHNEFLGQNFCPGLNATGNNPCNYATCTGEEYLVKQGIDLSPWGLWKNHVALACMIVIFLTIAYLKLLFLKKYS
As to the kind of experiment: Inhibition of human BCRP mediated [3H]mitoxantrone transport activity in human Caco-2 cells. Type of series: cell-based.

A short description of series [9]: Activity at P-pg.
The test system of series [10] is MCF7. As to the kind of experiment: Antiproliferative activity against adriamycin resistant human MCF7 cells after 24 hrs by MTT assay. Type of series: functional, cell-based. In general terms: Tetrazolium assays rely on reduction of a dye to a coloured formazan, in cell work by metabolically active cells.
Series [11] deals with T2, BCRP (ABCG2) (Homo sapiens, UniProt Q9UNQ0).
T2 sequence (Q9UNQ0 whole entry): T1 sequence (Q9UNQ0 whole entry)
As to the kind of experiment: Inhibition of human BCRP mediated [3H]mitoxantrone transport activity in human Caco-2 cells at 100 uM. Type of series: cell-based. The note with it: Caco-2, probe [3H]mitoxantrone.

Sequence of ATP-dependent translocase ABCB1 (P08183 whole entry): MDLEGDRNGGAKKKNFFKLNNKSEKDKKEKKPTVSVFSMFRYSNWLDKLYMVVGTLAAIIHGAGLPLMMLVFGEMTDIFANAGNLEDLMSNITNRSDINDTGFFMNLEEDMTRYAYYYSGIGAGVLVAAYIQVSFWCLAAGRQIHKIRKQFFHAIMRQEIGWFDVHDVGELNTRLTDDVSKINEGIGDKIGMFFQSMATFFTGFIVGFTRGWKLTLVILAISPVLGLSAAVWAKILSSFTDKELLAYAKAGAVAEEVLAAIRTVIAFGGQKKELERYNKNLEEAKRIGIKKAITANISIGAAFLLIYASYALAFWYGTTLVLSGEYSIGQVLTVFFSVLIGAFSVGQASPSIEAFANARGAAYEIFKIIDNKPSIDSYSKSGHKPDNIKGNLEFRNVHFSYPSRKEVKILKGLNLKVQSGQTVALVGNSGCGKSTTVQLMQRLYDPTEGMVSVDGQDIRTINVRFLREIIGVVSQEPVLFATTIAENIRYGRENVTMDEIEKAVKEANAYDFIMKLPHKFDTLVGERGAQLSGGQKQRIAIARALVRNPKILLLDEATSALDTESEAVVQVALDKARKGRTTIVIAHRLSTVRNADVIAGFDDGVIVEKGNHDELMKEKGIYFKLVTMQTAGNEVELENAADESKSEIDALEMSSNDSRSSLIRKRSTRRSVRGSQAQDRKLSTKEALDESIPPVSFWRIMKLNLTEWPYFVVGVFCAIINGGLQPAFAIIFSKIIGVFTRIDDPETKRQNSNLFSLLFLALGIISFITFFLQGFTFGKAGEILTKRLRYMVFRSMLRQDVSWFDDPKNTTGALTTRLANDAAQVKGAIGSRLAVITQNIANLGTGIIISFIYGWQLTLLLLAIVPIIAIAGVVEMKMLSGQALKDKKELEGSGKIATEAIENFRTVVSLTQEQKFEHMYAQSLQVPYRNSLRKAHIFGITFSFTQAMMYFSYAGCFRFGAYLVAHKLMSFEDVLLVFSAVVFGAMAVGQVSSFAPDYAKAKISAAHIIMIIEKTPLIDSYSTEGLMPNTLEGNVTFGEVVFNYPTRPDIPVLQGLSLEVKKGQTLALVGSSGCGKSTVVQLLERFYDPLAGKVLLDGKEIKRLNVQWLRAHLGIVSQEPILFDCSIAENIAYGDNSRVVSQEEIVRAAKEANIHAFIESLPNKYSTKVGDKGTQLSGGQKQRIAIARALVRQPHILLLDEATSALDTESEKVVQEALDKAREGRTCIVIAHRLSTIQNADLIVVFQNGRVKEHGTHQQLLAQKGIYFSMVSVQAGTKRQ

For `COc1ccc2cc(C(=O)N3CCc4cc(OC)c(OC)cc4C3)ccc2c1`, the Papp B→A in series [1] amounted to 123 ×10⁻⁶ cm/s. The Activity result in series [2] is “Not Active”. Besides, the pEC50 in series [3] is 4.74. Further, the Papp A→B in series [4] came out at 19.3 ×10⁻⁶ cm/s.

Turning to `COc1cc2c(cc1OC)CN(Cc1ccc3ccccc3c1)CC2`, the Papp B→A in series [1] was found to be 180 ×10⁻⁶ cm/s. The Activity entry in series [2] was “Not Active”. Besides, the pEC50 in series [3] is 6.10. Moreover, in [4], the Papp A→B amounted to 21.6 ×10⁻⁶ cm/s.

As for `COc1cc2c(cc1OC)CN(C(=O)c1ccc(-c3ccccc3)cc1)CC2`, the Papp B→A in series [1] is 244 ×10⁻⁶ cm/s. Besides, the Activity in [2] is listed as 35%. This compound had a pEC50 in series [3] of 4.55. For the same compound, the Papp A→B in [4] amounted to 60.1 ×10⁻⁶ cm/s.

On to `COc1cc2c(cc1OC)CN(Cc1cccc(-c3ccccc3)c1)CC2`, for which, in series [1], the Papp B→A is 366 ×10⁻⁶ cm/s. Also, the Activity result in [2] is “Not Active”. This compound gave a pEC50 in series [3] of 5.19. Moreover, in [4], the Papp A→B came to 30.1 ×10⁻⁶ cm/s.

Regarding `COc1ccc2cc(CN3CCc4cc(OC)c(OC)cc4C3)ccc2c1`, the figures for the Papp in series [5] and in series [7] were 67.7 ×10⁻⁶ cm/s and 18.7 ×10⁻⁶ cm/s, respectively. The Activity entry in [2] is “Not Active”. The pEC50 in [3] was 6.52. In addition, the Ratio in series [6] came to 3.6.

For the compound `COc1cc2c(cc1OC)CN(C(=O)c1ccc3cc(O)ccc3c1)CC2`, the Papp B→A in series [1] came out at 190 ×10⁻⁶ cm/s. The same compound gave an Activity in series [2] of 40%. This compound also had a pEC50 in [3] of 6.19. Moreover, the Papp A→B in series [4] is 25.1 ×10⁻⁶ cm/s.

Turning to `COc1cc2c(cc1OC)CN(Cc1ccc3cc(O)ccc3c1)CC2`, the Papp B→A in [1] was 235 ×10⁻⁶ cm/s. Also, the Activity in [2] was found to be 10%. Moreover, the pEC50 in [3] was 6.35. Also, in series [4], the Papp A→B was found to be 35.3 ×10⁻⁶ cm/s.

For the compound `COc1cc2c(cc1OC)CN(C(=O)c1ccc(-c3ccc(O)cc3)cc1)CC2`, in series [1], the Papp B→A was 277 ×10⁻⁶ cm/s. Also, the Activity result in series [2] is recorded as “Not Active”. The compound further had a pEC50 in series [3] of 5.46. Moreover, in [4], the Papp A→B stood at 28 ×10⁻⁶ cm/s.

Turning to `COc1cc2c(cc1OC)CN(Cc1ccccc1-c1ccccc1)CC2`, the Papp B→A in [1] came to 197 ×10⁻⁶ cm/s. The Activity entry in series [2] is recorded as “Not Active”. This compound also had a pEC50 in series [3] of 4.82. The Papp A→B in [4] worked out at 21.6 ×10⁻⁶ cm/s.

In the case of `COc1cc2c(cc1OC)CN(CC/C=C1\CCCc3c(OC)cccc31)CC2`, the Activity entry in series [2] was “Not Active”; in series [8], “Active”. Besides, the negative logarithm of the EC50 (pEC50) in series [3] was 5.79.

In series [9], `COc1cccc2c1CCCC2CCCN1CCN(C2CCCCC2)CC1` (stereo not drawn) gave a pEC50 of 6.26.

For `COc1cc2c(cc1OC)CN(Cc1ccc(-c3ccccc3)cc1)CC2`, the Papp B→A in [1] worked out at 141 ×10⁻⁶ cm/s. Moreover, the Activity entry in series [2] is on record as “Not Active”. The compound further gave a pEC50 in [3] of 7.00. For the same compound, the Papp A→B in series [4] was 77.7 ×10⁻⁶ cm/s. The result in series [10] was inactive.

As to `COc1cc2c(cc1OC)CN(C(=O)c1ccc3ccccc3c1)CC2`, in series [1], the Papp B→A came to 415 ×10⁻⁶ cm/s. In [2], this compound displayed an Activity of 10%. The same compound showed a pEC50 in [3] of 4.70. Also, in series [4], the Papp A→B was found to be 32.4 ×10⁻⁶ cm/s.

Turning to `COc1cc2c(cc1OC)CN(Cc1ccc(-c3ccc(O)cc3)cc1)CC2`, in [1], the Papp B→A turned out to be 60.9 ×10⁻⁶ cm/s. The Activity result in series [2] was “Not Active”. In addition, the pEC50 in series [3] was 7.30. In addition, testing at 100 µM in series [11] gave an inhibition of 19%. The Papp A→B in series [4] is 47.6 ×10⁻⁶ cm/s. Besides, the outcome in series [10] was inactive.

As to `COc1cc2c(cc1OC)CN(CCc1ccc(NC(=O)c3cccc4c(=O)c5cccc(OC)c5[nH]c34)cc1)CC2`, in series [2], the Activity result is given as “Not Active”. The pEC50 in series [3] was 5.70.
